# Assay results reported in the OPERA property sets (Mansouri et al. 2018).
row,Structure (SMILES),logP
1,CCCNC(=O)c1ccoc1,1.2
2,CCNC(=O)c1cccn1C,1.09
3,CCCNC(=O)c1cc2ccccc2[nH]1,2.8
4,COC(=O)c1cccn1C,1.8
5,CCNC(=O)c1cc2ccccc2[nH]1,2.32
6,CCOC(=O)c1cc2ccccc2[nH]1,3.22
7,O=[N+]([O-])c1cncnc1,-0.05
8,CCCNC(=O)c1cc2ccccc2o1,2.65
9,CCNC(=O)c1c[nH]c2ccccc12,1.62
10,CCCNC(=O)c1cccn1C,1.63
11,CCOC(=O)c1cc2ccccc2o1,3.05
12,CNC(=O)c1cc2ccccc2o1,1.85
13,CNC(=O)c1c[nH]c2ccccc12,1.25
14,Cn1cccc1C(N)=O,0.45
15,CCNC(=O)c1cc2ccccc2o1,2.22

# The remaining lines, values ahead:
row,logP,Structure (SMILES)
1,0.71,CNC(=O)c1cccn1C
2,1.25,CCCNC(=O)c1ccc[nH]1
3,0.42,CNC(=O)c1ccc[nH]1
4,0.09,NC(=O)c1ccc[nH]1
5,1.73,CCOC(=O)c1ccc[nH]1
6,0.8,CCNC(=O)c1ccc[nH]1
7,1.9,CNC(=O)c1cc2ccccc2[nH]1
